Literature values as cited in PMC8583936, “Machine Learning Assisted Approach for Finding Novel High Activity Agonists of Human Ectopic Olfactory Receptors” (International Journal of Molecular Sciences, 2021).

Molecular target: T1, OR2W1 (Homo sapiens, UniProt Q9Y3N9)
T1 sequence (Q9Y3N9 1-320): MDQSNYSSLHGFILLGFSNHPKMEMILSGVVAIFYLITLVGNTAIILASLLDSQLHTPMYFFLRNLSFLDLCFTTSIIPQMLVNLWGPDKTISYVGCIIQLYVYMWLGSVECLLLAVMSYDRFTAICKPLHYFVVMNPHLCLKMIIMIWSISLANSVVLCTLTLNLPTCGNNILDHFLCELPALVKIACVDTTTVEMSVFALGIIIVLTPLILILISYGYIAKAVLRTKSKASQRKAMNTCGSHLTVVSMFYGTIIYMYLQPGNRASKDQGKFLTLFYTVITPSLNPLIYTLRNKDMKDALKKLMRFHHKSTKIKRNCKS
Conditions: Table S2; ref Supplement references [2]-[12] as printed after each odorant name; cited from earlier work

| Molecule | Class (agonist / non-agonist / antagonist / conflicting info.) for OR2W1 |
| --- | --- |
| CCCCCC(=O)CC(C)=O [2,4-nonanedione] | Agonist |
| CCCCC(=O)CC(C)=O [2,4-octanedione] | Agonist |
| CC(=O)CC(=O)CC(C)C [6-Methyl-2,4-heptanedione] | Agonist |

Same assay, conditions: cited from earlier work

| Molecule | Class (agonist / non-agonist / antagonist / conflicting info.) for OR2W1 |
| --- | --- |
| CC(C)=CCC[C@@H](C)CC=O [Citronellal] | Agonist |

Molecular target: T2, OR1A1 (Homo sapiens, UniProt Q9P1Q5)
T2 sequence (Q9P1Q5 1-309): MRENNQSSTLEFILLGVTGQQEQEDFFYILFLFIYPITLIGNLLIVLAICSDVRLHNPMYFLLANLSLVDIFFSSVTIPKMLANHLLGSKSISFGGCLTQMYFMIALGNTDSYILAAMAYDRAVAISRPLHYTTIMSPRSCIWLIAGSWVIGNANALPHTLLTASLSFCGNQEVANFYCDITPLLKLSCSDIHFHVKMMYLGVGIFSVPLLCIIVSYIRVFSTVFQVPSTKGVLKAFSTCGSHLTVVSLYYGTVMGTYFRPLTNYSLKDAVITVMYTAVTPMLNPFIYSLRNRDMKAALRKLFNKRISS
Conditions: Table S1; ref Supplement references [1]-[9] as printed after each odorant name; cited from earlier work

| Molecule | Class (agonist / non-agonist / conflicting info.) for OR1A1 |
| --- | --- |
| C=CC(C)(O)CCC=C(C)CCC=C(C)C (mixture of isomers) [Nerolidol] | Agonist |
| C=C(C)C1CC=C(C)[C@@H](O)C1 (single isomer, unassigned; (-)) [(-)-Carveol] | Agonist |
| C=C(C)C1CC=C(C)C(OC(C)=O)C1 (single isomer, unassigned; (-)) [(-)Carvyl acetate mix] | Non-agonist |
| ClC=CCl [1,2-dichlorethylene] | Non-agonist |
| CC(C)C12CCC(C)(CC1)O2 [1,4-cineole] | Non-agonist |
| OCCCCCCCCCO [1,9 nonanediol] | Non-agonist |
| CCc1nccnc1CC [2,3-diethyl pyrazine] | Conflicting info. |
| Cc1cnc(C)cn1 [2,5 dimethyl pyrazine] | Non-agonist |
| CCCCCCC(Br)C(=O)O (centres unmarked) [2-bromo octanoic acid] | Non-agonist |
| CCCC(Br)C(=O)O (centres unmarked) [2-bromovaleric acid] | Non-agonist |
| CCc1ccccc1O [2-ethylphenol] | Agonist |
| COc1cnccn1 [2-methoxypyrazine] | Non-agonist |
| Cc1cnccn1 [2-methylpyrazine] | Non-agonist |
| CCCCCCCCCCCCCC(C)=O [2-pentadecanone] | Non-agonist |
| CCCCCC=CCCC=O [4-decenal] | Agonist |
| CCCCCCCC(=O)CCCCCCC [8-pentadecanone] | Non-agonist |
| CC1(C)[C@H]2CC=C(C=O)[C@@H]1C2 [(R)-(-)-myrtenal] | Non-agonist |
| O=C(O)CCCCC(=O)O [Adipic acid] | Non-agonist |
| COc1ccccc1 [Anisole] | Non-agonist |

| Molecule | Class (agonist / non-agonist / conflicting info.) for OR1A1 |
| --- | --- |
| CC(C)(C)c1ccc(CCC=O)cc1 [Bourgeonal] | Conflicting info. |
| CCC(Br)C(=O)O (centres unmarked) [Bromobutyric acid] | Non-agonist |
| CCCCS [Butane thiol] | Non-agonist |
| CC1C(C)(C)C2=C(C(=O)CCC2)C1(C)C (centres unmarked) [Cashmeran] | Non-agonist |
| CC(=O)c1cc(C(C)(C)C)cc2c1CCC2(C)C [Celestolide] | Agonist |
| CC(C)=CCCC(C)CC(=O)O (centres unmarked) [Citronellic acid] | Non-agonist |
| CC1C/C=C/CCCCCCCCC(=O)C1 (centres unmarked) [Cosmone] | Agonist |
| O=C1CCCCCCCCC1 [Cyclodecanone] | Non-agonist |
| C1CCCCCCCCCCCCCC1 [Cyclopentadecane] | Non-agonist |
| OC1CCCCCCCCCCCCCC1 [Cyclopentadecanol] | Non-agonist |
| O=C1CCCCCCCCCC1 [Cycloundecanone] | Non-agonist |
| CCCCCCC/C=C/C=C/C=O [E,E-2,4-dodecadienal] | Non-agonist |
| CC/C=C/CC/C=C/C=O [E,E-26-nonadienal] | Non-agonist |
| CCCCC/C=C/CCC=O [E-4-decanal] | Agonist |
| O=C1CCCCCCCCCCCCCCO1 [Exaltolide] | Non-agonist |
| CC(C)=CCC/C(C)=C/CC/C(C)=C/CO [Farnesol] | Non-agonist |
| CC1COCc2cc3c(cc21)C(C)(C)C(C)C3(C)C (centres unmarked) [Galaxolide] | Non-agonist |
| O=C1CCCCCC/C=C\CCCCCCC1 [Globanone] | Non-agonist |
| O=C1CCCCCCCCC/C=C/CCCO1 [Habanolide] | Non-agonist |

| Molecule | Class (agonist / non-agonist / conflicting info.) for OR1A1 |
| --- | --- |
| CCC(=O)OCC(C)(C)OC(C)C1CCCC(C)(C)C1 (centres unmarked) [Helvetolide] | Non-agonist |
| CCCCCCCC(=O)OCCC(C)C [Isoamyl octanoate] | Non-agonist |
| CC(C)CS [Isobutyl mercaptan] | Non-agonist |
| CCCCCCCC(=O)OC [Methyl octanoate] | Non-agonist |
| CCCC(C)C=O (centres unmarked) [Methyl pentanal] | Non-agonist |
| C[C@@H]1CCCCCCCCCCCCC(=O)C1 [Muscone] | Conflicting info. |
| CC(C)=CCC/C(C)=C\CO [Nerol] | Agonist |
| CC(=O)OC/C=C(/C)CCC=C(C)C [Nerylacetate] | Non-agonist |
| CCCCCCCCC=O [Nonanal] | Conflicting info. |
| CCCCCCCC(=O)OCCc1ccccc1 [Phenethyl octanoate] | Non-agonist |
| c1cnccn1 [Pyrazine] | Conflicting info. |
| C1CCNC1 [Pyrrolidine] | Non-agonist |
| O=C(O)CCC(=O)O [Succinic acid] | Non-agonist |
| C=CC(=C)CC/C=C(\C)CCC=C(C)C [Trans-beta-farnesene] | Non-agonist |
| CCCCCCCCCCC=O [Undecanal] | Non-agonist |
| CC/C=C\CCCCCC=O [Z-7-decanal] | Agonist |
| Ambrettolide | Non-agonist |
| Farnesene | Non-agonist |

Same assay, conditions: cited from earlier work

| Molecule | Class (agonist / non-agonist / conflicting info.) for OR1A1 |
| --- | --- |
| C=CC(O)CCCCC (centres unmarked) [1-octen-3-ol] | Non-agonist |
| Cc1nccnc1C [2,3-dimethylpyrazine] | Non-agonist |
| CCCCC(Br)C(=O)O (centres unmarked) [2-bromohexanoic acid] | Non-agonist |
| CCc1cnccn1 [2-ethylpyrazine] | Non-agonist |
| COc1ccc(C)cc1 [4-methylanisole] | Non-agonist |
| CC(C)=CCC[C@@H](C)CCO [(R)-(+)-citronellol] | Agonist |
| COC(OC)c1ccccc1 [Benzaldehyde dimethyl acetal] | Non-agonist |
| CC(C)=CCCC(C)=CC#N [Citralva] | Non-agonist |
| O=C1CCCCCCCCCCCCCC1 [Cyclopentadecanone] | Non-agonist |
| c1ccc2[nH]ccc2c1 [Indole] | Non-agonist |
| C/C=C/c1ccc(OC)c(OC)c1 [Methyl isoeugenol] | Agonist |
| CCC(=O)OC [Methyl propionate] | Non-agonist |
| CC(=O)c1c(C)c([N+](=O)[O-])c(C(C)(C)C)c([N+](=O)[O-])c1C [Musk ketone] | Non-agonist |
| CC(C)=CCC/C(C)=C\COC(=O)C(C)C [Neryl isobutyrate] | Non-agonist |
| Oc1ccccc1 [Phenol] | Non-agonist |
| CCC(=O)c1ccccc1 [Propiophenone] | Agonist |
| CC(=O)CCc1ccc(O)cc1 [Raspberry ketone] | Non-agonist |
| Cc1ccc(C(C)C)c(O)c1 [Thymol] | Conflicting info. |
| CC(=O)c1cc2c(cc1C)C(C)(C)C(C)CC2(C)C (centres unmarked) [Tonalide] | Non-agonist |
| O=C(O)/C=C(\CC(=O)O)C(=O)O [Trans-Aconitic acid] | Non-agonist |
| CN(C)C [Trimethylamine] | Non-agonist |
| (+)-Menthone | Agonist |
| (S)-(-)-citronellal | Agonist |
